Results on twelve compounds are retold here after US9586986B2, “Substituted 7-deazapurine ribonucleosides for therapeutic uses” (Institute of Organic Chemistry and Biochemistry ASCR, v.v.i., priority 2014, dated 2017).

Molecules are shown by their SMILES.

Type in all cases: cell-based
One data set has as its system CEM-DNR-bulk. The data set is described as follows: Cytostatic/cytotoxic MTT assay, CEM-DNR-bulk. Conditions: Homo sapiens; daunorubicin resistant subline, 72 h; read-out: MTT, IC50 CEM-DNR-bulk. From the text:
(§1) Unless otherwise stated, all cells were purchased from the […] (ATCC). The CCRF-CEM line is derived from T lymphoblastic leukemia, evincing high chemosenzitivity, K562 represent cells from a […] patient sample with bcr-abl translocation, HCT116 is colorectal tumor cell line and its p53 gene knock-down counterpart (HCT116p53−/−, Horizon Discovery, UK) is a model of human cancers with p53 inactivation frequently associated with poor prognosis, A549 cell line is lung adenocarcinoma. The daunorubicin resistant subline of CCRF-CEM cells (CEM-DNR bulk) and paclitaxel resistant subline K562-TAX were selected in our laboratory by cultivation of maternal cell lines in increasing concentrations of daunorubicine or paclitaxel, respectively. The CEM-DNR cells overexpress mrp-1 and mdr-1 genes, while K562-TAX cells overexpress mdr-1 only. Both proteins belong to the family of ABC transporters and are involved in the primary and/or acquired multidrug resistance phenomenon (ref.: Gottesman, M. M.; Fojo, T.; Bates, S. E. Multidrug resistance in cancer: role of ATP-dependent transporters. Nat. Rev. Cancer. 2002, 2, 48-58. (b) Noskova, V.; Dzubak, P.; Kuzmina, G.; Ludkova, A.; Stehlik, D.; Trojanec, R.; Janostakova, A.; Korinkova, G.; Mihal, V.; Hajduch, M. In vitro chemoresistance profile and expression/function of MDR associated proteins in resistant cell lines derived from CCRF-CEM, K562, A549 and MDA MB 231 parental cells. Neoplasma 2002, 49, 418-425). Non-malignant MRC-5 and BJ cells, derived from normal human fibroblasts, were used as controls. The cells were maintained in Nunc/Corning 80 cm^2 plastic tissue culture flasks and cultured in cell culture medium (DMEM/RPMI 1640 with 5 g/L glucose, 2 mM glutamine, 100 U/mL penicillin, 100 µg/mL streptomycin, 10% fetal calf serum, and NaHCO3). Cell suspensions were prepared and diluted according to the particular cell type and the expected target cell density (25,000-30,000 cells/well based on cell growth characteristics). Cells were added by pipette (80 L) into 96-well microtiter plates. Inoculates were allowed a pre-incubation period of 24 h at 37° C. and 5% CO2 for stabilization. Four-fold dilutions, in 20-L aliquots, of the intended test concentration were added to the microtiter plate walls at time zero. All test compound concentrations were examined in duplicate. Incubation of the cells with the test compounds lasted for 72 h at 37° C., in a 5% CO2 atmosphere at 100% humidity. At the end of the incubation period, the cells were assayed using MTT. Aliquots (10 L) of the MTT stock solution (5 mg/ml) were pipetted into each well and incubated for another 1-4 h. After this incubation period the formazan produced was dissolved by addition of 100 µL/well of 10% aq SDS (pH 5.5), followed by a further incubation at 37° C. overnight. The optical density was measured at 540 nm. The IC50 value, the drug concentration inhibiting the cell growth by 50%, was calculated from appropriate dose-response curves.
(§2) In vitro cytotoxic/cytostatic activity final nucleosides 1-5 was initially evaluated against […] cell lines derived from human solid tumors including lung (A549 cells) and colon (HCT116 and HCT116p53−/−) carcinomas, as well as leukemia cell lines (CCRF-CEM, CEM-DNR, K562 and K562-TAX) and, for comparison, non-malignant BJ and MRC-5 fibroblasts. Concentrations inhibiting the cell growth by 50% (IC50) were determined using a quantitative metabolic staining with 3-(4,5-dimethylthiazol-2-yl)-2,5-diphenyltetrazolium bromide (MTT) (ref.: Denizot, F.; Lang, R. Rapid colorimetric assay for cell growth and survival: Modifications to the tetrazolium dye procedure giving improved sensitivity and reliability. J. Immunol. Meth. 1986, 89, 271-277) following a 3-day treatment.
(§3) Multidrug resistance is a major therapeutic problem in cancer chemotherapy. […]
For orientation: Tetrazolium assays rely on reduction of a dye to a coloured formazan, in cell work by metabolically active cells.

The test system of a further data set is HCT116. Put plainly: Cytostatic/cytotoxic MTT assay, HCT116. The following applies: Homo sapiens, HCT-116; 72 h incubation; read-out: MTT, IC50 HCT116.
Description: as §1, §2, §3

For another data set, the system named is HepG2. The data set is described as follows: XTT cytotoxicity assay, HepG2. The following applies: Homo sapiens, HepG2; 72 h incubation; read-out: XTT, IC50 HepG2. The procedure:
(§4) HL-60, Hela S3 and HepG2 cell lines (ATCC) were grown in RPMI-1640 or DMEM medium supplemented with 10% fetal calf serum, […] of streptomycin, 200 U/mL of penicillin G and 4 mM glutamine in a humidified atmosphere containing 5% CO2 at 37° C. Sensitivity of these cell lines to the synthesized compounds was assessed with the use of XTT cell proliferation kit II (Roche Diagnostics GmbH, Mannheim, Germany) according to the manufacturer's instructions. Briefly, cells were seeded in a 96-well plate at a density of 10,000 cells per well (90 μL). After 24 h, 10 μL of the tested compounds were added to the culture media at desired concentration range and incubated for 72 h. After that 50 μL of the XTT solution was added (1 mg/mL XTT+0.383 mg/mL N-methyl dibenzopyrazine methyl sulfate). The absorbance was recorded at 495 nm following a 2 h-incubation with the dye. IC50 values were determined by non-linear regression method using GraphPad Prism version 5.00 for Windows (GraphPad Software, La Jolla, Calif., USA).

A further data set concerns HeLa S3. Put plainly: XTT cytotoxicity assay, HeLa S3. The following applies: Homo sapiens, HeLa S3; 72 h incubation; read-out: XTT, IC50 HeLa S3. The procedure: as §4
In addition, the anti-proliferative effect was tested against a human T-lymphoblastic leukemia line CCRF-CEM, promyelocytic leukemia HL-60 and cervical carcinoma HeLa S3 growing in liquid suspension. Cell viability was determined following a 3-day incubation using 2,3-bis-(2-methoxy-4-nitro-5-sulfophenyl)-2H-tetrazolium-5-carboxanilide (XTT) assay (ref.: Scudiero, D. A.; Shoemaker, R. H.; Paull, K. D.; Monks, A.; Tierney, S.; Nofziger, T. H.; Currens, M. J.; Seniff, D.; Boyd M. R. Evaluation of a Soluble Tetrazolium/Formazan Assay for Cell Growth and Drug Sensitivity in Culture Using Human and Other Tumor Cell Lines. Cancer Res. 1988, 48, 4827-4833).

Data set [1] deals with HCV subtype 1B replicon in Huh-7 cells. The data set is described as follows: HCV sub-genomic reporter replicon assay, subtype 1B. The following applies: Hepatitis C virus; Huh-7 cells, HCV subtype 1B replicon; read-out: Replicon 1B EC50. The method, then:
(§5) Compounds were also tested in Huh-7 cells harboring sub-genomic reporter replicons derived from HCV subtypes 1B and 2A (ref.: Stuyver, L. J.; Whitaker, T.; McBrayer, T. R.; Hernandez-Santiago, B. I.; Lostia, S.; Tharnish, P. M.; Ramesh, M.; Chu, C. K.; Jordan, R.; Shi, J. X.; Rachakonda, S.; Watanabe, K. A.; Otto, M. J.; Schinazi, R. F. Antimicrob. Agents Chemother. 2003, 47, 244-254).

The test system of data set [2] is Huh-7 cells harboring replicon 1B. The data set is described as follows: Cytotoxicity in replicon 1B cells. The following applies: HCV subtype 1B replicon. The method, then:
as §5
In general terms: In antiviral work, replicon cells carry a viral genome segment that copies itself.

As usually defined, the IC50 is the point on the concentration scale where inhibition reaches its midpoint. As usually defined, the EC50 is the midpoint of the concentration-response curve. A word on the CC50: it is the concentration giving 50% cytotoxicity. A high value points to lower toxicity to the cells. In the case of `CSc1ncnc2c1c(-c1ccccc1)cn2[C@@H]1O[C@H](CO)[C@@H](O)[C@H]1O` [Compound 2e, 4-Methylsulfanyl-5-phenyl-7-(β-D-ribofuranosyl)-7H-pyrrolo[2,3-d]pyrimidine], the IC50 with CEM-DNR-bulk, with HCT116, in the data set on HepG2 and in the data set with HeLa S3 was above 20 µM in each case. Moreover, in data set [1], the EC50 was determined as 23.3 µM. For the same compound, the CC50 in data set [2] is above 44 µM.

On to `CSc1ncnc2c1c(-c1cc3ccccc3o1)cn2[C@@H]1O[C@H](CO)[C@@H](O)[C@H]1O` [Compound 2f, 5-(Benzofuran-2-yl)-4-methylsulfanyl-7-(β-D-ribofuranosyl)-7H-pyrrolo[2,3-d]pyrimidine], for which the IC50 with CEM-DNR-bulk is above 20 µM; in the data set with HCT116, above 20 µM; in the data set on HepG2, above 20 µM; with HeLa S3, 1.93 µM. Also, the EC50 in data set [1] was 8.03 µM. This compound also gave a CC50 in data set [2] above 44 µM.

Take `C#Cc1cn([C@@H]2O[C@H](CO)[C@@H](O)[C@H]2O)c2ncnc(SC)c12` [Compound 2g, 5-Ethynyl-4-methylsulfanyl-7-(β-D-ribofuranosyl)-7H-pyrrolo[2,3-d]pyrimidine]: the IC50 in the data set on CEM-DNR-bulk was 0.11 µM; in the data set on HCT116 it was 0.03 µM; with HepG2, above 15 µM; in the data set on HeLa S3, 0.11 µM. Moreover, in data set [1], the EC50 was 0.21 µM. In addition, the CC50 in data set [2] was above 44 µM.

With `CSc1ncnc2c1c(I)cn2[C@@H]1O[C@H](CO)[C@@H](O)[C@H]1O` [Compound 2h, 5-Iodo-4-methylsulfanyl-7-(β-D-ribofuranosyl)-7H-pyrrolo[2,3-d]pyrimidine], the IC50 in the data set with CEM-DNR-bulk was above 20 µM; with HCT116, above 20 µM; in the data set on HepG2, above 20 µM; with HeLa S3, 0.25 µM. Also, the EC50 in data set [1] worked out at 19.2 µM. This compound showed a CC50 in data set [2] above 44 µM.

In the case of `CNc1ncnc2c1c(-c1ccco1)cn2[C@@H]1O[C@H](CO)[C@@H](O)[C@H]1O` [Compound 3a, 5-(Furan-2-yl)-4-methylamino-7-(β-D-ribofuranosyl)-7H-pyrrolo[2,3-d]pyrimidine], the IC50 in the data set on CEM-DNR-bulk is above 20 µM; in the data set on HCT116, 0.23 µM; with HepG2, 0.85 µM; in the data set with HeLa S3, 5 µM. Besides, the EC50 in data set [1] stood at 0.06 µM. Further, the CC50 in data set [2] is above 44 µM.

Regarding `CNc1ncnc2c1c(-c1ccoc1)cn2[C@@H]1O[C@H](CO)[C@@H](O)[C@H]1O` [Compound 3b, 5-(Furan-3-yl)-4-methylamino-7-(β-D-ribofuranosyl)-7H-pyrrolo[2,3-d]pyrimidine], the IC50 in the data set with CEM-DNR-bulk, in the data set on HCT116, with HepG2 and in the data set with HeLa S3 was above 20 µM in each case. Further, the EC50 in data set [1] was 35.9 µM. Moreover, in data set [2], the CC50 was above 44 µM.

Turning to `CNc1ncnc2c1c(-c1cccs1)cn2[C@@H]1O[C@H](CO)[C@@H](O)[C@H]1O` [Compound 3c, 4-Methylamino-7-(β-D-ribofuranosyl)-5-(thiophen-2-yl)-7H-pyrrolo[2,3-d]pyrimidine], the IC50 with CEM-DNR-bulk, in the data set with HCT116, in the data set with HepG2 and with HeLa S3 was above 20 µM in each case. Also, in data set [1], the EC50 is above 44 µM. The same compound returned a CC50 in data set [2] above 44 µM.

Take `CNc1ncnc2c1c(-c1ccsc1)cn2[C@@H]1O[C@H](CO)[C@@H](O)[C@H]1O` [Compound 3d, 4-Methylamino-7-(β-D-ribofuranosyl)-5-(thiophen-3-yl)-7H-pyrrolo[2,3-d]pyrimidine]: the concentration for half-maximal inhibition (IC50) with CEM-DNR-bulk, in the data set on HCT116, in the data set on HepG2 and in the data set with HeLa S3 was above 20 µM in each case. The EC50 in data set [1] was above 44 µM. In data set [2], this compound gave a CC50 above 44 µM.

`CNc1ncnc2c1c(-c1ccccc1)cn2[C@@H]1O[C@H](CO)[C@@H](O)[C@H]1O` [Compound 3e, 4-Methylamino-5-phenyl-7-(β-D-ribofuranosyl)-7H-pyrrolo[2,3-d]pyrimidine]: the IC50 in the data set with CEM-DNR-bulk, with HCT116, in the data set with HepG2 and in the data set with HeLa S3 was above 20 µM throughout. The EC50 in data set [1] was above 44 µM. In data set [2], this compound came in with a CC50 above 44 µM.

`CNc1ncnc2c1c(-c1cc3ccccc3o1)cn2[C@@H]1O[C@H](CO)[C@@H](O)[C@H]1O` [Compound 3f, 5-(Benzofuran-2-yl)-4-methylamino-7-(β-D-ribofuranosyl)-7H-pyrrolo[2,3-d]pyrimidine]: the IC50 in the data set with CEM-DNR-bulk, in the data set with HCT116, with HepG2 and with HeLa S3 was above 20 µM in each case. For the same compound, the EC50 in data set [1] turned out to be 2.05 µM. This compound also had a CC50 in data set [2] above 44 µM.

Regarding `C#Cc1cn([C@@H]2O[C@H](CO)[C@@H](O)[C@H]2O)c2ncnc(NC)c12` [Compound 3g, 5-Ethynyl-4-methylamino-7-(β-D-ribofuranosyl)-7H-pyrrolo[2,3-d]pyrimidine], the IC50 was 18.5 µM with CEM-DNR-bulk, above 20 µM in the data set on HCT116, above 15 µM in the data set on HepG2 and above 20 µM with HeLa S3. For the same compound, the EC50 in data set [1] is 0.35 µM. Also, in data set [2], the CC50 was above 44 µM.

On to `CN(C)c1ncnc2c1c(-c1ccco1)cn2[C@@H]1O[C@H](CO)[C@@H](O)[C@H]1O` [Compound 4a, 4-Dimethylamino-5-(furan-2-yl)-7-(β-D-ribofuranosyl)-7H-pyrrolo[2,3-d]pyrimidine], for which the IC50 was 3.14 µM in the data set with CEM-DNR-bulk, 0.25 µM in the data set on HCT116, above 15 µM with HepG2 and 1.19 µM in the data set with HeLa S3. Moreover, in data set [1], the EC50 was 1.49 µM. In addition, in data set [2], the CC50 was above 44 µM.
